For orientation: half-life means the time in which the quantity being followed falls by half. A high value points to slow decline. What is called clearance is the volume of plasma or blood freed of the substance per unit of time. Read a low clearance as inefficient removal. For orientation: Ki means the dissociation constant of the complex between target and ligand, obtained from inhibition or displacement. The low end stands for higher affinity, the high end for lower affinity. A word on the EC50: it is the concentration needed to bring the measured effect to its halfway point. For orientation: logD means lipophilicity at a set pH, counting ionised and neutral species. Read a low logD as a more hydrophilic compound. The bioavailability is the share of a dose that reaches the circulation, judged against a reference dose that is usually intravenous.

Data on twelve molecules can be found in ChEMBL document CHEMBL4346726 (Bioorg Med Chem Lett, 2019).

SMILES strings stand for the structures.

The test system of data set [1] is Hepacivirus hominis. Put plainly: Binding affinity to HCV NS3/4a protease assessed as compound-protein adduct formation per mg protein using radiolabelled compound.
Data set [2] in a line: Volume of distribution at steady state in rat. The data set is classed as ADME. As to conditions: in vivo, read-out: Vdss.
Data set [3] in a line: Half life in rat. Particulars: in vivo. The data set is classed as ADME.
Data set [4] can be described thus: Clearance in rat. It counts as ADME. Particulars: in vivo.
Data set [5] can be described thus: Inhibition of HCV genotype 3a NS3/4a protease by enzymatic assay. Also on record: species or system Hepatitis C virus subtype 3a.
For data set [6], the system named is Hepatitis C virus. Put plainly: Antiviral activity against HCV genotype 3a in RLuc cells assessed as reduction in viral replication by luciferase reporter gene assay. It counts as functional, organism-based, Hepacivirus hominis, subtype 3a. As to conditions: Hepatitis C virus, subtype 3a.
Data set [7] is described as follows: Lipophilicity, log D of compound. The data set is classed as physicochemical. Particulars: octanol/water.
The nature of data set [8]: Oral bioavailability in rat. It counts as ADME, organism-based. As to conditions: in vivo.
Data set [9] can be described thus: Drug concentration in rat liver after 6 hrs. It counts as ADME, tissue-based. As to conditions: read-out: Drug uptake.

In the case of `C=C[C@@H]1C[C@]1(NC(=O)[C@@H]1C[C@@H](Oc2cc(-c3csc(NC(=O)C(C)C)n3)nc3c(Br)c(OC)ccc23)CN1C(=O)[C@@H](NC(=O)OC1CCCC1)C(C)(C)C)C(=O)O`, the PB in [1] worked out at 15 pmol/mg.
Still for that read-out and setting: the figure for `CC(C)(C)OC(=O)N[C@H]1CCCCC/C=C\[C@@H]2C[C@@]2(C(=O)NS(=O)(=O)C2CC2)NC(=O)[C@@H]2C[C@@H](OC(=O)N3Cc4cccc(F)c4C3)CN2C1=O` is 202 pmol/mg; for `C=C[C@@H]1C[C@]1(NC(=O)[C@@H]1C[C@@H]2CN1C(=O)[C@H](C(C)(C)C)NC(=O)O[C@@H]1C[C@H]1CCCCCc1nc3ccc(OC)cc3nc1O2)C(=O)NS(=O)(=O)C1CC1` it is 24 pmol/mg.
Still for that read-out and setting: next, `COc1ccc2c(O[C@@H]3C[C@H]4C(=O)N[C@]5(C(=O)NS(=O)(=O)C6CC6)C[C@H]5/C=C\CCCCN(C)C(=O)[C@@H]4C3)cc(-c3nc(C(C)C)cs3)nc2c1C`: 22 pmol/mg.
As for `Cc1cnc(C(=O)N[C@H]2CCCCC/C=C\[C@@H]3C[C@@]3(C(=O)NS(=O)(=O)C3CC3)NC(=O)[C@@H]3C[C@@H](Oc4nc5ccccc5c5ccccc45)CN3C2=O)cn1`, the PB in [1] was 295 pmol/mg.
Still for that read-out and setting: next, `CC[C@@H]1C[C@]1(NC(=O)[C@@H]1C[C@@H](Oc2cc(-c3csc(NC(C)C)n3)nc3c(Cl)c(OCCN4CCOCC4)ccc23)CN1C(=O)[C@@H](NC(=O)O[C@@H]1C[C@@H]2C[C@@H]2C1)C(C)(C)C)C(=O)O`: 26 pmol/mg.
For the molecule `CC[C@@H]1[C@@H]2CN(C(=O)[C@H](C(C)(C)C)NC(=O)O[C@@H]3C[C@H]3CCCCCc3nc4ccc(OC)cc4nc3O2)[C@@H]1C(=O)N[C@]1(C(=O)NS(=O)(=O)C2CC2)C[C@H]1CC`, the Vd in data set [2] came to 3.1 L/kg. The molecule also gave a half-life in [3] of 5 h. In addition, the clearance in data set [4] is 11.2 mL/min/kg. The affinity in data set [5], expressed as Ki, was 0.563 nM. Further, in data set [6], the EC50 amounted to 272 nM. In data set [7], this molecule had a pH-dependent lipophilicity (logD) of 4.6. The molecule also had a bioavailability in data set [8] of 100%. The concentration at 6 h in data set [9] turned out to be 30.2 µM.
As to `COc1ccc2nc3c(nc2c1)O[C@H]1CN(C(=O)[C@H](C(C)(C)C)NC(=O)O[C@@H]2C[C@H]2CCCCC3)[C@H](C(=O)N[C@]2(C(=O)NS(=O)(=O)C3(C)CC3)C[C@H]2C(F)F)[C@@H]1C`, the Vd in data set [2] stood at 2.2 L/kg. The molecule also showed a half-life in data set [3] of 1.3 h. In data set [4], this molecule showed a clearance of 35 mL/min/kg. The inhibition constant (Ki) in data set [5] came out at 0.1 nM. For the same molecule, the EC50 in data set [6] came to 20 nM. This molecule also came in with a pH-dependent lipophilicity (logD) in data set [7] of 3.5. The molecule further registered a bioavailability in [8] of 100%. Further, in [9], the concentration at 6 h is 3.1 µM.
In the case of `COc1ccc2c(O[C@H]3CCN4C(=O)N(C)CCCC/C=C\[C@@H]5C[C@@]5(C(=O)NS(=O)(=O)C5(C)CC5)NC(=O)[C@@H]4C3)cc(-c3nc(C(F)(F)F)cs3)nc2c1C`, the PB in [1] was 96 pmol/mg.
Still for that read-out and setting: next, `C=C[C@@H]1C[C@]1(NC(=O)[C@@H]1C[C@@H](Oc2ncc(OC)c3ccc(Cl)cc23)CN1C(=O)[C@@H](NC(=O)OC(C)(C)C)C(C)(C)C)C(=O)NS(=O)(=O)C1CC1`: 114 pmol/mg.
As for `C=C[C@@H]1C[C@]1(NC(=O)[C@@H]1[C@H](CC)[C@@H]2CN1C(=O)[C@H](C(C)(C)C)NC(=O)O[C@@H]1C[C@H]1CCCCCc1nc3ccc(OC)cc3nc1O2)C(=O)NS(=O)(=O)C1CC1`, the Vd in [2] stood at 1.9 L/kg. The half-life in data set [3] was 2.2 h. In data set [4], the clearance is 14.7 mL/min/kg. Moreover, the Ki in [5] came to 0.081 nM. Further, the EC50 in data set [6] was 20 nM. Also, the PB in data set [1] came to 117 pmol/mg. The molecule further showed a logD in data set [7] of 4.1. Besides, in data set [9], the concentration at 6 h stood at 20.9 µM.
With `CC[C@@H]1C[C@]1(NC(=O)[C@@H]1C[C@@H]2CN1C(=O)[C@H](C(C)(C)C)NC(=O)OCC(C)(C)CCCCc1cccc3c1CN(C3)C(=O)O2)C(=O)NS(=O)(=O)C1CC1`, the PB in data set [1] was determined as 29 pmol/mg.
